The conditions of data set [1]: cited from earlier work.
The conditions of data set [2]: oral dose x bioavailability. The text has this:
[formula] [formula] [formula] Dual Penetration Enhancer Formulations

Data set [3] in a line: Permeation of abuse-deterrent (naloxone) formulations through separating membrane and placebo opioid layer, 72 h diffusion study. Conditions: from abuse deterrent layer NLX-2014-01-011. It counts as in vitro ADME. On the procedure:
The ability of abuse-deterrent layer formulations to migrate into the oxymorphone layer was investigated. A placebo oxymorphone layer was prepared and two abuse-deterrent formulations (NLX-2014-01-011 and NLX-2014-01-012) were tested with different separating layers. The appearance of both formulations was uniform and aesthetically pleasing. When assembled, no distinguishable layers could be observed and the layers themselves were inseparable. Patches of size 0.95 cm^2 patches were punched out from the release liner side of the assembled roll.
Insofar as NLX-2014-01-011 is concerned, while two cells did show permeation from the abuse deterrent layer, this was probably due to the abuse deterrent layer contacting the skin, as by the end of the experiment almost no permeation was observed.

Another data set has as its system sedation in dogs. Conditions: 4.5 mg intravenous dose reversed by 1.2 mg intravenous naloxone; cited from earlier work.

SMILES strings stand for the structures. Where a name gives a salt, the structure may show the parent alone. Read-outs that look alike come from different tables or passages of the source.

In the case of `COc1ccc2c3c1O[C@H]1C(=O)CC[C@H]4[C@@H](C2)N(C)CC[C@]314` [Hydrocodone], in data set [1] (po), the Bioavailability was 80%.

For the compound `COc1ccc2c3c1O[C@H]1C(=O)CC[C@@]4(O)[C@@H](C2)N(C)CC[C@]314` [Oxycodone], the Bioavailability in data set [1] (oral) is listed as 87%.

As to `CN1CC[C@]23c4c5ccc(O)c4O[C@H]2C(=O)CC[C@@]3(O)[C@H]1C5` [Oxymorphone], the “Dose after first pass effect” value in data set [2] is given as 4.0 mg/day.

`C=CCN1CC[C@]23c4c5ccc(O)c4O[C@H]2C(=O)CC[C@@]3(O)[C@H]1C5` [naloxone hydrochloride]: the “permeability of the antagonist in the system” value in data set [3] is “largely impermeable”.

Take `C=CCN1CC[C@]23c4c5ccc(O)c4O[C@H]2C(=O)CC[C@@]3(O)[C@H]1C5` [naloxone]: the “reversal of oxymorphone sedation” value in the data set with sedation in dogs is given as “reversed”.

Values taken from patent US10238648B2 (priority 2014, dated 2019).
